Results as given in PMC5146660, “Functional and structural characterization of a novel putative cysteine protease cell wall-modifying multi-domain enzyme selected from a microbial metagenome” (Scientific Reports, 2016).

Molecular target: T1, PCP (putative cysteine protease)
T1 construct: domains 1-48, 49-185 (CHAP, Cys100/His161), 186-247 (PGBD), 248-319 (SH3); monomer; printed peptide 178PVTDALKR185; primers encode start (M)LGQISTA and end KYARLVE
Experiment: tryptophan fluorescence quenching, double-logarithm regression
Format: binding, uncultured bacterium (Capra hircus rumen metagenome)
Conditions: 50 mM NaH2PO4, 300 mM NaCl, 200 mM imidazole, pH 8.5, 25 °C; protein 5.28 μM; excitation 295 nm; read-out: Kb (converted)

Kd: 5.56 µM
Structure (SMILES): CC1(C)S[C@@H]2[C@H](NC(=O)[C@H](N)c3ccccc3)C(=O)N2[C@H]1C(=O)O [ampicillin]
